Data reported in patent US11649430B2 (priority 2018, dated 2023).

Test system: R. solanacearum
Assay type: cell-based, Ralstonia solanacearum
Settings: ΔrmyA mutant strain (more sensitive than WT); 0.4 mM; 24 hours

## COC1=C(O)C(=O)C2=C(C1=O)[C@H]1N[C@@H](Cc3c[nH]c4ccccc34)C(=O)N1C(C(=O)N[C@@H](CC(C)CO)C(=O)O)C2 (some centres unmarked) [Imizoquin A, imizoquin A]
  R. solanacearum growth (OD): decreases R. solanacearum growth modestly

## COC1=C(O)C(=O)C2=C(C1=O)[C@H]1N[C@@H](Cc3c[nH]c4ccccc34)C(=O)N1C(C(=O)N[C@@H](CC(CO)CO)C(=O)O)C2 (some centres unmarked) [Imizoquin B, imizoquin B]
  R. solanacearum growth (OD): decreases R. solanacearum growth modestly
